Laboratory results from US20210255193A1, “LYSINE REACTIVE PROBES AND USES THEREOF” (The Scripps Research Institute, priority 2017, published 2021).

Tests used:
Test in all cases: competitive isoTOP-ABPP
Type in all cases: binding
Conditions in all cases: 50 uM, 231 sol, in vitro
[1] = biological target: T1, TPMT Thiopurine S-methyltransferase (Homo sapiens, UniProt P51580); design: key to isoTOP-ABPP reactivity ratio at lysine P51580_K32: R = MS1 peak area ratio, DMSO (heavy) / compound-treated (light)
T1 construct: isoTOP-ABPP experiments performed in cell lysates (in vitro); endogenous in cells; host or cells: soluble proteome of human cancer cell lines (MDA-MB-231; Ramos and Jurkat also prepared)
T1 sequence (P51580 1-245): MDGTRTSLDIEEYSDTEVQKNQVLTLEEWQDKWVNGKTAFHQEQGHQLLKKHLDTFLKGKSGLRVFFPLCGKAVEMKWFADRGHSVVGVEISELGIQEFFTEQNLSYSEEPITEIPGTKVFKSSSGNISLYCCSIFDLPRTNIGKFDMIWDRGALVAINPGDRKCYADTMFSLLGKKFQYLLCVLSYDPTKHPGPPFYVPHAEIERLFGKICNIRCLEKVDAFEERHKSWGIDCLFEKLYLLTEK
Description: (§1) In vitro covalent fragment treatment for isoTOP-ABPP. All compounds were made up as solutions in DMSO (100×) and were used at a final concentration of 50 μM for activated esters and 100 μM for guanidinylating agents. For each profiling sample, 0.5 ml of lysate was treated with 5 μl of the 100× compound stock solution or 5 μl of DMSO. Samples were treated with activated esters for
(§2) STP-alkyne labeling and click chemistry. For concentration-dependent reactivity measurements by isoTOP-ABPP, 0.5 ml proteome aliquots were treated at ambient temperature with 1 mM STP-alkyne 1 (5 μl of 100 mM stock in DMSO) and 0.1 mM STP alkyne 1 (5 μl of 10 mM stock in DMSO), respectively. For competitive isoTOP-ABPP, after in vitro fragment treatment (detailed above), the samples were labeled for 1 h at ambient temperature with 0.1 mM STP-alkyne 1 (5 μl of 10 mM stock in DMSO). Samples were conjugated by copper-mediated azide-alkyne cycloaddition (CuAAC) to either the light (1 mM STP-alkyne or fragment treated) or heavy (0.1 mM STP-alkyne or DMSO treated) TEV tags (10 μl of 5 mM stocks in DMSO, final concentration=100 μM) using tris(2-carboxyethyl)phosphine hydrochloride
(§3) R value calculation and processing. The ratios of light and heavy MS1 peaks for each unique peptide were quantified with a CIMAGE software using default parameters (3 MS1 acquisitions per peak and signal to noise threshold set to 2.5). For reactivity measurements by isoTOP-ABPP, the R value was calculated from the ratio of MS1 peak areas, comparing the 1 mM STP alkyne sample (light TEV tag) with the 0.1 mM STP alkyne sample (heavy TEV tag). For competitive isoTOP-ABPP, the R value was calculated from the ratio of MS1 peak areas, comparing the DMSO treated sample (heavy TEV tag) with the compound treated sample (light TEV tag). […] Ratios for unique peptide entries are calculated for each experiment; overlapping peptides with the same modified lysine (for example, different charge states, MudPIT chromatographic steps or tryptic termini) are grouped together and the median ratio is reported as the final ratio (R). The peptide ratios reported by CIMAGE were further filtered to ensure the removal or correction of low-quality ratios in each individual data set. The quality filters applied were the following: removal of half tryptic peptides; for ratios with high standard deviations from the median (90% of the median or above) the lowest ratio was taken instead of the median; removal of peptides with R=20 and only a single MS2 event triggered during the elution of the parent ion; manual annotation of all the peptides with ratios of 20, removing any peptides with low quality elution profiles that remained after the previous curation steps (only done for competitive isoTOP-ABPP).
(§4) Cross-data processing for fragment screening. For compound treated samples, biological replicates of the same condition were averaged, if the standard deviation was below 60% of the mean; otherwise, for lysines with at least one R value <4 for a particular compound, the lowest value of the ratio set was taken. For lysines, where all R values for a particular compound were ≥4, the average was reported. For peptides containing several possible modified lysines, the lysine with the highest number of quantification events was used for analysis and the remaining, redundant peptides were reported as alternative modification sites. Peptides included in the aggregate dataset (those used for further bioinformatics and statistical analyses) were required to have been quantified in 2 experiments for competitive isoTOP-ABPP. Lysines were categorized as liganded, if they had at least one ratio R≥4 (hit fragments). For liganded lysines with R=20 for all liganding events, lysines were required to have been quantified with R=20 in two separate experiments and were further required to have been quantified with R<20 in one additional experiment.

[2] = biological target: T2, CPOX Coproporphyrinogen-III oxidase, mitochondrial (Homo sapiens, UniProt P36551); design: key to isoTOP-ABPP reactivity ratio at lysine P36551_K404: R = MS1 peak area ratio, DMSO (heavy) / compound-treated (light)
T2 construct: isoTOP-ABPP experiments performed in cell lysates (in vitro); endogenous in cells; host or cells: soluble proteome of human cancer cell lines (MDA-MB-231; Ramos and Jurkat also prepared)
T2 sequence (P36551 111-454): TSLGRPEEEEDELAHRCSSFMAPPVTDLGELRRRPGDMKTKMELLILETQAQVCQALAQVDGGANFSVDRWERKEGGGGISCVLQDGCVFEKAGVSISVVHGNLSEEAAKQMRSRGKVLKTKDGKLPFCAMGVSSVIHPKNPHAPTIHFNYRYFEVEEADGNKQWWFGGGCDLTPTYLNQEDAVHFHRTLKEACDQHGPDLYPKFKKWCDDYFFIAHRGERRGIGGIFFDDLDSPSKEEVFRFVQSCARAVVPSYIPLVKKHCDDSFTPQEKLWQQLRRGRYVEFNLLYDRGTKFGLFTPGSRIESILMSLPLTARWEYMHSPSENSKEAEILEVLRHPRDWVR
Description: as §1, §2, §3, §4

[3] = biological target: T3, ISOC2 Isochorismatase domain-containing protein 2, mitochondrial (Homo sapiens, UniProt Q96AB3); design: key to isoTOP-ABPP reactivity ratio at lysine Q96AB3_K178: R = MS1 peak area ratio, DMSO (heavy) / compound-treated (light); capped at 20
T3 construct: isoTOP-ABPP experiments performed in cell lysates (in vitro); endogenous in cells; host or cells: soluble proteome of human cancer cell lines (MDA-MB-231; Ramos and Jurkat also prepared)
T3 sequence (Q96AB3 1-205): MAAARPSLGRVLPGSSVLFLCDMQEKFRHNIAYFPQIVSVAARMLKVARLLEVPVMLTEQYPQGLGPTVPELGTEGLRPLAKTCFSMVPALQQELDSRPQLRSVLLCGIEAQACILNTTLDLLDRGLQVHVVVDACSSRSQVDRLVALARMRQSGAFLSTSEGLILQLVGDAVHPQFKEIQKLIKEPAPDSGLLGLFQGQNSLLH
Description: as §1, §2, §3, §4

[4] = biological target: T4, MAP1LC3B Microtubule-associated proteins 1A/1B light chain (Homo sapiens, UniProt Q9GZQ8); design: key to isoTOP-ABPP reactivity ratio at lysine Q9GZQ8_K51: R = MS1 peak area ratio, DMSO (heavy) / compound-treated (light)
T4 construct: isoTOP-ABPP experiments performed in cell lysates (in vitro); endogenous in cells; host or cells: soluble proteome of human cancer cell lines (MDA-MB-231; Ramos and Jurkat also prepared)
Description: as §1, §2, §3, §4

Row | Structure (SMILES) | isoTOP-ABPP reactivity ratio at lysine P51580_K32 [1] | isoTOP-ABPP reactivity ratio at lysine P36551_K404 [2] | isoTOP-ABPP reactivity ratio at lysine Q96AB3_K178 [3] | isoTOP-ABPP reactivity ratio at lysine Q9GZQ8_K51 [4]
1 | COc1cc(CCC(=O)Oc2ccc([N+](=O)[O-])cc2[N+](=O)[O-])cc(OC)c1OC [fragment 33, 2,4-Dinitrophenyl 3-(3,4,5-trimethoxyphenyl)propanoate] | 3.7 | 1.0 | 9.1 | 0.8
2 | CCn1cc(C(=O)Oc2c(F)c(F)c(F)c(F)c2F)c(=O)c2ccc(C)nc21 [fragment 28, Pentafluorophenyl 1-ethyl-7-methyl-4-oxo-1,4-dihydro-1,8-naphthyridine-3-carboxylate] | 1.1 | 0.9 | 1.8 | 1.0
